Like-named read-outs stand apart in the source and are kept apart here.
How the values were obtained:
HCT-116 = assay: MTT cytotoxicity assay, HCT-116; assay type: cell-based; conditions: Homo sapiens
HepG2 = assay: MTT cytotoxicity assay, HepG2; assay type: cell-based, human
WRL-68 = assay: cells; assay type: cell-based; conditions: for IC50: Homo sapiens; for toxicity against normal cell line: WRL-68, result in words
MCF-7 = assay: MTT cytotoxicity assay, MCF-7; assay type: cell-based; conditions: Homo sapiens
PC3 cells = conditions: read-out: IC50 proliferation rate of PC3 cells; cited from earlier work
[1] = HCT-116, 48 h, read-out: IC50 against HCT-116 μM 48 h
[2] = HCT-116, 72 h, read-out: IC50 against HCT-116 μM 72 h
[3] = Homo sapiens, HepG2, 48 h, read-out: IC50 against HepG2 μM 48 h, MTT, 48 h
[4] = Homo sapiens, HepG2, 72 h, read-out: IC50 against HepG2 μM 72 h, MTT, 72 h
[5] = WRL68, 48 h, read-out: IC50 against WRL-68 μM 48 h
[6] = WRL68, 72 h, read-out: IC50 against WRL-68 μM 72 h
[7] = MCF7, 48 h, read-out: IC50 against MCF-7 μM 48 h
[8] = MCF7, 72 h, read-out: IC50 against MCF-7 μM 72 h

IC50 (WRL-68; [5]) [µM] | IC50 (WRL-68; [6]) [µM] | Structure (SMILES) | IC50 (HCT-116; [1]) [µM] | IC50 (HCT-116; [2]) [µM] | IC50 (HepG2; [3]) [µM] | IC50 (HepG2; [4]) [µM] | toxicity against normal cell line (WRL-68) | IC50 (MCF-7; [7]) [µM] | IC50 (MCF-7; [8]) [µM] | IC50 (HepG2; read-out: IC50 against HepG2 μM 72 h, MTT, 72 h) [µM] | IC50 (PC3 cells) [µM]
112 | 94.1 | COc1ccc(-c2nc(OCc3cn(CC(=O)Nc4ccccc4)nn3)c3ccccc3n2)cc1 [Compound 8a, 2-(4-(((2-(4-methoxyphenyl)quinazolin-4-yl)oxy)methyl)-1H-1,2,3-triazol-1-yl)-N-phenylacetamide] | 10.7 | 5.33 | 17.5 | 7.94 | limited toxicity | 38.1 | 13 | – | –
117 | 84.4 | COc1cc(-c2nc(OCc3cn(CC(=O)Nc4ccccc4)nn3)c3ccccc3n2)cc(OC)c1OC [Compound 8k, N-phenyl-2-(4-(((2-(3,4,5-trimethoxyphenyl)quinazolin-4-yl)oxy)methyl)-1H-1,2,3-triazol-1-yl)acetamide] | 69 | 41.1 | 72.4 | 16.2 | – | 24.2 | 11.3 | – | –
2.19 | 1.73 | COc1cccc2c1C(=O)c1c(O)c3c(c(O)c1C2=O)C[C@@](O)(C(=O)CO)C[C@@H]3O[C@H]1C[C@H](N)[C@H](O)[C@H](C)O1 [Doxorubicin, reference compound] | – | 1.21 | 1.96 | 1.31 | – | – | – | – | –
106 | 74.4 | COc1ccc(-c2nc(OCc3cn(CC(=O)Nc4ccc(Br)cc4)nn3)c3ccccc3n2)cc1 [Compound 8c, N-(4-bromophenyl)-2-(4-(((2-(4-methoxyphenyl)quinazolin-4-yl)oxy)methyl)-1H-1,2,3-triazol-1-yl)acetamide] | 47.8 | 12.2 | 30.4 | 13 | – | 111 | 62.2 | – | –
117 | 86.4 | Cc1ccc(NC(=O)Cn2cc(COc3nc(-c4ccc(Cl)cc4)nc4ccccc34)nn2)cc1 [Compound 8i, 2-(4-(((2-(4-chlorophenyl)quinazolin-4-yl)oxy)methyl)-1H-1,2,3-triazol-1-yl)-N-(p-tolyl)acetamide] | 48.1 | 24.2 | 55.1 | 10.9 | – | 221 | 97 | – | –
115 | 89.5 | O=C(Cn1cc(COc2nc(-c3ccc(Cl)cc3)nc3ccccc23)nn1)Nc1ccc(Br)cc1 [Compound 8h, N-(4-bromophenyl)-2-(4-(((2-(4-chlorophenyl)quinazolin-4-yl)oxy)methyl)-1H-1,2,3-triazol-1-yl)acetamide] | 42.3 | 41.8 | 90.5 | 8.55 | – | 34.1 | 20.6 | – | –
100 | 90.3 | COc1ccc(-c2nc(OCc3cn(CC(=O)Nc4ccc([N+](=O)[O-])cc4C)nn3)c3ccccc3n2)cc1 [Compound 8f, 2-(4-(((2-(4-methoxyphenyl)quinazolin-4-yl)oxy)methyl)-1H-1,2,3-triazol-1-yl)-N-(2-methyl-4-nitrophenyl)acetamide] | 36.2 | 23.9 | 26.1 | 9.15 | limited toxicity | 21.3 | 18 | – | –
108 | 89.8 | COc1ccc(-c2nc(OCc3cn(CC(=O)Nc4ccc(Cl)cc4)nn3)c3ccccc3n2)cc1 [Compound 8b, N-(4-chlorophenyl)-2-(4-(((2-(4-methoxyphenyl)quinazolin-4-yl)oxy)methyl)-1H-1,2,3-triazol-1-yl)acetamide] | 77.1 | 68.6 | 78.9 | 19.8 | – | 25.9 | 20.9 | – | –
113 | 83.5 | COc1ccc(-c2nc(OCc3cn(CC(=O)Nc4ccc(C)cc4)nn3)c3ccccc3n2)cc1 [Compound 8d, 2-(4-(((2-(4-methoxyphenyl)quinazolin-4-yl)oxy)methyl)-1H-1,2,3-triazol-1-yl)-N-(p-tolyl)acetamide] | 30.1 | 8.97 | 59.2 | 15 | – | 39.9 | 20 | – | –
112 | – | COc1ccc(-c2nc(OCc3cn(CC(=O)Nc4cccc(OC)c4)nn3)c3ccccc3n2)cc1 [Compound 8e, N-(3-methoxyphenyl)-2-(4-(((2-(4-methoxyphenyl)quinazolin-4-yl)oxy)methyl)-1H-1,2,3-triazol-1-yl)acetamide] | 160 | 90.6 | 46 | 10.2 | – | 35.2 | 23 | – | –
110 | 78.6 | O=C(Cn1cc(COc2nc(-c3ccc(Cl)cc3)nc3ccccc23)nn1)Nc1cccc(Br)c1 [Compound 8j, N-(3-bromophenyl)-2-(4-(((2-(4-chlorophenyl)quinazolin-4-yl)oxy)methyl)-1H-1,2,3-triazol-1-yl)acetamide] | 176 | 54.2 | 55.8 | 8.55 | – | 164 | 55.8 | 12.7 | –
– | – | CNC(=O)c1cc(Oc2ccc(NC(=O)Nc3ccc(Cl)c(C(F)(F)F)c3)cc2)ccn1 [sorafenib] | – | – | – | – | – | – | – | – | 17.3
103 | 85.1 | O=C(Cn1cc(COc2nc(-c3ccc(Cl)cc3)nc3ccccc23)nn1)Nc1ccccc1 [Compound 8g, 2-(4-(((2-(4-chlorophenyl)quinazolin-4-yl)oxy)methyl)-1H-1,2,3-triazol-1-yl)-N-phenylacetamide] | 49.2 | 24.5 | 38.8 | 13.2 | – | 67.2 | 20.9 | – | –
101 | 71.3 | COc1cc(-c2nc(OCc3cn(CC(=O)Nc4ccc(C)cc4)nn3)c3ccccc3n2)cc(OC)c1OC [Compound 8l, N-(p-tolyl)-2-(4-(((2-(3,4,5-trimethoxyphenyl)quinazolin-4-yl)oxy)methyl)-1H-1,2,3-triazol-1-yl)acetamide] | 64.3 | 29.4 | 41.4 | – | – | 28.8 | 26.5 | – | –
